Reference: patent publication US10526339B2, “Substituted glucosepanes and compositions thereof” (YALE UNIVERSITY, priority 2015, dated 2020)

Experiments:
[1] = EXSY NOESY conformational exchange (E/Z isomerization); format: physicochemical
Text: With synthetic glucosepane (5) in hand, we next investigated its structural features using multidimensional NMR techniques. […] Indeed, although the original glucosepane isolation report did note the possibility of E/Z isomerism in acyclic 2-amino imidazoles, the presence of these exchange peaks in the case of glucosepane have previously been incorrectly attributed to stereoisomerism at the C-8a stereocenter.^(35) Using an EXSY (EXchange SpectroscopY) NOESY sequence,^(34) the inventors were able to calculate an approximate rate for this conformational exchange process on the order of 3 s^−1 in D2O.^28
The integral ratios and tm were used to calculate an approximate rate by the following formula:^5
[formula] Xa=mole fraction of conformer A Xb=mole fraction of conformer B Iaa=integral intensity for diagonal peak (conformer A) Ibb=integral intensity for diagonal peak (conformer B) Iab and Iba=integral intensity for cross-peak Sample calculation with the data provided above: […]

[2] = Glucosepane pKa study (UV pH titration)
Text: The inventors next took advantage of glucospane's intrinsic spectral properties to measure the pKa of the iso-imidazole core.

[3] = Hydrogen/deuterium exchange at C-8a in D2O; format: physicochemical; conditions: basic conditions (aqueous NaOD), either epimer

N[C@@H](CCCCN1C[C@@H](O)[C@@H](O)C[C@@H]2N=C(NCCC[C@H](N)C(=O)O)N=C21)C(=O)O [Compound 5, Glucosepane Tris-Trifluoroacetate]
k ([1]; sample calculation from 2D NOESY integrals, tm 1.00 sec): 2.89 s⁻¹

N[C@@H](CCCCN1C[C@@H](O)[C@@H](O)C[C@@H]2N=C(NCCC[C@H](N)C(=O)O)N=C21)C(=O)O (stereo in doubt) [Compound 5, Glucosepane Tris-Trifluoroacetate]
pKa [2]: ~12 | time for quantitative hydrogen/deuterium exchange at the C-8a H-atom [3]: < 60 min | approximate rate of conformational exchange (E/Z isomerization about exocyclic C2-N bond) ([1]; in D2O, EXSY NOESY): ~3 s⁻¹
